Laboratory results published in ChEMBL document CHEMBL6096630, “Enhancing therapeutic efficacy in homologous recombination-proficient pancreatic cancer via the combination of PARP1-PROTAC and a BRD4 inhibitor” (Bioorg Med Chem, 2024).
The source made the active and inactive calls. No cut-off for these calls is given here.

Legend:
PANC-1 [1] = assay: Induction of apoptosis in human PANC-1 cells at 2 uM incubated for 48 hrs by Annexin V-FITC/PI staining based flow cytometry relative to control; type: functional
PANC-1 [2] = assay: Induction of cell cycle arrest in human PANC-1 cells assessed as accumulation at G2/M phase at 2 uM incubated for 24 hrs in presence of JQ1 by PI staining based flow cytometry; type: functional
PANC-1 [3] = assay: Synergistic antiproliferative activity against human PANC-1 cells expressing wild-type BRCA assessed as combination index at 2:1 ratio of compound:JQ1 incubated for 5 days by CCK8 assay; type: functional; settings: time 5 day
PANC-1 [4] = assay: Induction of apoptosis in human PANC-1 cells at 2 uM incubated for 48 hrs in presence of JQ1 by Annexin V-FITC/PI staining based flow cytometry relative to control; type: functional
PANC-1 [5] = assay: Induction of cell cycle arrest in human PANC-1 cells assessed as decrease in CDK4 level at 2 uM incubated for 24 hrs in presence of JQ1 by […]; type: functional
PANC-1 [6] = assay: Anti-migration activity in human PANC-1 cells at 2 uM in presence of JQ1 incubated for 24 hrs by transwell assay relative to control; type: functional
PANC-1 [7] = assay: Induction of DNA damage in human PANC-1 cells assessed as increase in gamma-H2AX level at 2 uM in presence of JQ1 by immunofluorescence based analysis; type: functional, cell-based
PANC-1 [8] = assay: Synergistic antiproliferative activity against human PANC-1 cells expressing wild-type BRCA assessed as inhibition of cell viability incubated for 5 days in presence of JQ1 by CCK8 assay; type: functional, cell-based; settings: time 5.0 day
PANC-1 [9] = assay: Induction of apoptosis in human PANC-1 cells at 2 uM incubated for 48 hrs in presence of JQ1 by Annexin V-FITC/PI staining based flow cytometry relative to compound treatment alone; type: functional
PANC-1 [10] = assay: Induction of cell cycle arrest in human PANC-1 cells assessed as decrease in CDK6 level at 2 uM incubated for 24 hrs in presence of JQ1 by […]; type: functional
BXPC-3 = assay: Synergistic antiproliferative activity against human BXPC-3 cells expressing wild-type BRCA assessed as inhibition of cell viability incubated for 5 days in presence of JQ1 by CCK8 assay; type: functional, cell-based; settings: time 5.0 day
PANC-1 [11] = assay: Induction of apoptosis in human PANC-1 cells assessed as necrotic cells at 0.25 uM incubated for 48 hrs by Annexin V-FITC/PI staining based flow cytometry (reference value: 3.09 %); type: functional
PANC-1 [12] = assay: Induction of apoptosis in human PANC-1 cells assessed as necrotic cells at 0.12 uM incubated for 48 hrs by Annexin V-FITC/PI staining based flow cytometry (reference value: 3.09 %); type: functional
PANC-1 [13] = assay: Induction of apoptosis in human PANC-1 cells assessed as viable cells at 0.25 uM incubated for 48 hrs by Annexin V-FITC/PI staining based flow cytometry (reference value: 91.64 %); type: functional; settings: read-out: Activity
PANC-1 [14] = assay: Induction of apoptosis in human PANC-1 cells assessed as necrotic cells at 1 uM incubated for 48 hrs in presence of OL by Annexin V-FITC/PI staining based flow cytometry (reference value: 3.09 %); type: functional
PANC-1 [15] = assay: Induction of apoptosis in human PANC-1 cells at 1 uM incubated for 48 hrs in presence of OL by Annexin V-FITC/PI staining based flow cytometry relative to control; type: functional
PANC-1 [16] = assay: Induction of cell cycle arrest in human PANC-1 cells assessed as accumulation at S phase at 0.5 uM incubated for 24 hrs by PI staining based flow cytometry (reference value: 38.94 %); type: functional
[17] = Toxicity in BALB/c mouse xenografted with human PANC-1 cells assessed as pathological changes in lung at 20 mg/kg, ip for 4 weeks administered for 5 days consecutively and 2 days without treatment on every week by H and E staining based analysis; type: organism-based; settings: in vivo, 672 h
PANC-1 [18] = assay: Anti-migration activity in human PANC-1 cells at 1 uM in presence of OL incubated for 24 hrs by wound healing assay; type: functional, cell-based
[19] = Toxicity in BALB/c mouse xenografted with human PANC-1 cells assessed as pathological changes in kidney at 20 mg/kg, ip for 4 weeks administered for 5 days consecutively and 2 days without treatment on every week by H and E staining based analysis; type: organism-based; settings: in vivo, 672 h
PANC-1 [20] = assay: Induction of apoptosis in human PANC-1 cells assessed as late apoptotic cells at 0.12 uM incubated for 48 hrs by Annexin V-FITC/PI staining based flow cytometry (reference value: 3.87 %); type: functional
PANC-1 [21] = assay: Antitumor activity against human PANC-1 cells xenografted in BALB/c mouse assessed as reduction in tumor growth at 20 mg/kg, ip for 4 weeks administered for 5 days consecutively and 2 days without treatment on every week in presence of OL; type: functional, organism-based
[22] = Toxicity in BALB/c mouse xenografted with human PANC-1 cells assessed as animal morbidity at 20 mg/kg, ip for 4 weeks administered for 5 days consecutively and 2 days without treatment on every week in presence of OL; type: organism-based; settings: in vivo, 672 h
PANC-1 [23] = assay: Antitumor activity against human PANC-1 cells xenografted in BALB/c mouse at 20 mg/kg, ip for 4 weeks administered for 5 days consecutively and 2 days without treatment on every week in presence of OL relative to control; type: functional; settings: PANC-1, 672 h, read-out: TGI
PANC-1 [24] = assay: Induction of apoptosis in human PANC-1 cells assessed as early apoptotic cells at 0.25 uM incubated for 48 hrs by Annexin V-FITC/PI staining based flow cytometry (reference value: 1.41 %); type: functional
PANC-1 [25] = assay: Induction of apoptosis in human PANC-1 cells assessed as viable cells at 0.5 uM incubated for 48 hrs by Annexin V-FITC/PI staining based flow cytometry (reference value: 91.64 %); type: functional; settings: read-out: Activity
PANC-1 [26] = assay: Induction of cell cycle arrest in human PANC-1 cells assessed as accumulation at G2 phase at 1 uM incubated for 24 hrs in presence of OL by PI staining based flow cytometry (reference value: 9.36 %); type: functional
[27] = Toxicity in BALB/c mouse xenografted with human PANC-1 cells assessed as body weight loss at 20 mg/kg, ip for 4 weeks administered for 5 days consecutively and 2 days without treatment on every week; type: organism-based; settings: in vivo, 672 h
PANC-1 [28] = assay: Induction of cell cycle arrest in human PANC-1 cells assessed as accumulation at G2 phase at 0.5 uM incubated for 24 hrs by PI staining based flow cytometry (reference value: 9.36 %); type: functional
[29] = Toxicity in BALB/c mouse xenografted with human PANC-1 cells assessed as pathological changes in heart at 20 mg/kg, ip for 4 weeks administered for 5 days consecutively and 2 days without treatment on every week by H and E staining based analysis; type: organism-based; settings: in vivo, 672 h
PANC-1 [30] = assay: Induction of apoptosis in human PANC-1 cells assessed as late apoptotic cells at 0.25 uM incubated for 48 hrs by Annexin V-FITC/PI staining based flow cytometry (reference value: 3.87 %); type: functional
[31] = Toxicity in BALB/c mouse xenografted with human PANC-1 cells assessed as pathological changes in liver at 20 mg/kg, ip for 4 weeks administered for 5 days consecutively and 2 days without treatment on every week by H and E staining based analysis; type: organism-based; settings: in vivo, 672 h

In the case of `O=C(c1cc(Cc2n[nH]c(=O)c3ccccc23)ccc1F)N1CCN(C(=O)C2CC2)CC1` [OLAPARIB], the Activity (PANC-1 [1]) is reported as 8.1%, the Activity (PANC-1 [2]) is reported as “Active; Only A Slight Increase Observed” and the CI (PANC-1 [3]) is reported as <1. The Activity (PANC-1 [4]) was 26.9%.

For `O=C1CCC(N2C(=O)c3cccc(NC(=O)CNCCCCCCCCCCC(=O)N4CCN(C(=O)c5cc(Cc6n[nH]c(=O)c7ccccc67)ccc5F)CC4)c3C2=O)C(=O)N1` (configuration not stated), the Activity (PANC-1 [5]) was “Active”, the Activity (PANC-1 [6]) was 84.4% and the Activity (PANC-1 [7]) was “Active”. The inhibition (PANC-1 [8]) was “Active”, the Activity (PANC-1 [9]) was 20.5% and the Activity (PANC-1 [10]) was “Active”. For the same compound, the inhibition (BXPC-3) was “Active”.

Work on `Cc1sc2c(c1C)C(c1ccc(Cl)cc1)=N[C@@H](CC(=O)OC(C)(C)C)c1nnc(C)n1-2` yielded an Activity (PANC-1 [11]) of 2.48%, an Activity (PANC-1 [12]) of 2.94% and a viability at 0.25 µM (PANC-1 [13]) of 89.4%. It also gave an Activity (PANC-1 [14]) of 4.77%, an Activity (PANC-1 [15]) of 26.9% and an Activity (PANC-1 [16]) of 35.66%. For the same compound, the Activity [17] was “Non-toxic”, the Activity (PANC-1 [18]) was “Active” and the Activity [19] was “Non-toxic”. For the same compound, the Activity (PANC-1 [20]) was 3.99%, the Activity (PANC-1 [21]) was “Active” and the Activity [22] was “Non-toxic”. It also gave an inhibition in vivo at 20 mg/kg (PANC-1 [23]) of 80.7%, an Activity (PANC-1 [24]) of 4.08% and a viability at 0.5 µM (PANC-1 [25]) of 82.8%. The Activity (PANC-1 [26]) was 15.74%, the Activity [27] was “Toxic” and the Activity (PANC-1 [28]) was 10.56%. The Activity [29] was “Non-toxic”, the Activity (PANC-1 [30]) was 4.07% and the Activity [31] was “Non-toxic”.
